Measurements as given in patent publication US5126483A, “1-phenylalkyl-3-phenylurea derivatives” (Mitsubishi Kasei Corporation, priority 1989, dated 1992).

Assays:
[1] = test system: cholesterol level in serum; assay: Effect of reducing a lipid level in blood: serum cholesterol in hamsters fed 1% cholesterol / 0.5% cholic acid diet; type: in vivo, golden Syrian hamster; settings: once a day for 5 days, relative to control group
Experimental: The effect of reducing a lipid level in blood by the action of the compounds according to the present invention was determined as follows:
Male golden Syrian hamsters weighing from 80 to 100 g were randomly divided into groups. The hamsters were first fed standard laboratory diets (solid feed MF-1 for mouse/rat/hamster, manufactured by Oriental Yeast Industries, KK) for 3 days. Then, they were fed the experimental diet containing 1% cholesterol and 0.5% cholic acid (manufactured by Oriental Yeast Industries, KK), ad libitum. At the same time, the compounds of the invention formulated in a shown dose (0.1-10 mg/10 ml water/kg) were administrated to the animals orally once a day at a determined time for 5 days. Water was administrated orally to the hamsters of control group in an amount of 10 ml per 1 kg of body weight. After five days of administrating the compounds, the animals were anesthetized with Pentobarbital Na (Nembutal injection, manufactured by Dainabbot) and three hours after the final administration of the test compound, a blood sample was taken from abdominal cava. The serum was separated from the sample by centrifuging.
The cholesterol level in the serum was determined by using a blood cholesterol measuring kit, Determina-TC5 manufactured by Kyowa Medix Co. The results are represented by percent inhibition (%) of cholesterol level in serum relative to that of the control group, and shown in the following Table 2.

[2] = molecular target: acyl-CoA: cholesterol acyltransferase (ACAT); assay: ACAT inhibitory action: cholesteryl-[14C] oleate formation in hamster microsomes; type: biochemical; settings: radio-labelled oleoyl coenzyme A (14C)
Experimental: The ACAT inhibitory action of the compounds according to the present invention was measured as follows:
ACAT activity in the hamster microsomes was determined by measuring the rate of radio-active cholesteryl-[^14 C] oleate formation from cholesterol and radio-labelled oleoyl coenzyme A (^14 C) with or without test compound.
Calculations of IC50 value were made using data of the percent inhibition at each compound concentration.

[3] = Mesocricetus auratus, po, 120 h, 0.1 mg/kg, read-out: Percent inhibition of cholesterol in serum
[4] = Mesocricetus auratus, po, 120 h, read-out: Percent inhibition of cholesterol in serum

Row | SMILES | inhibition in vivo at 1 mg/kg [1, 4] | other results
1 | CCCCCC(CNC(=O)Nc1c(C(C)C)cccc1C(C)C)c1cccc(OC)c1OC (single isomer, unassigned; (+)) [Example 50, (+)-1-(2-(2,3-dimethoxyphenyl)heptyl)-3-(2,6-diisopropylpehyl)urea] | – | inhibition in vivo at 0.1 mg/kg [1, 3]: 18%
2 | CCCCCC(CNC(=O)Nc1c(C(C)C)cccc1C(C)C)c1cccc(OC)c1OC (single isomer, unassigned; (-)) [Example 51, (-)-1-(2-(2,3-dimethoxyphenyl)heptyl)-3-(2,6-diisopropylpheyl)urea] | – | Percent inhibition of cholesterol in serum ([1]; 0.1 mg/kg, oral): 25%
3 | CCCCC(CNC(=O)Nc1c(C(C)C)cccc1C(C)C)c1ccccc1C (stereo not drawn) [Example 9] | 19% | IC50 [2]: 4.9 nM
4 | CCCCCC(CNC(=O)Nc1c(C(C)C)cccc1C(C)C)c1cccc(C)c1 (stereo not drawn) [Example 12] | 43% | IC50 [2]: 26 nM
5 | CCCCC(CNC(=O)Nc1c(C(C)C)cccc1C(C)C)c1cccc(CC)c1 (stereo not drawn) [Example 15] | 36% | –
6 | CCCCC(CNC(=O)Nc1c(C(C)C)cccc1C(C)C)c1ccc(C)cc1 (stereo not drawn) [Example 19] | 36% | –
7 | CCCCC(CNC(=O)Nc1c(C(C)C)cccc1C(C)C)c1ccc(C)c(C)c1C (stereo not drawn) [Example 24] | 39% | –
8 | CCCCCC(CNC(=O)Nc1c(C(C)C)cccc1C(C)C)c1cccc(OC)c1 (stereo not drawn) [Example 29] | 36% | –
9 | CCCCC(CNC(=O)Nc1c(C(C)C)cccc1C(C)C)c1cccc(OC)c1OC (stereo not drawn) [Example 32] | 43% | –
10 | CCCCCC(CNC(=O)Nc1c(C(C)C)cccc1C(C)C)c1cccc(OC)c1OC (stereo not drawn) [Example 33] | – | IC50 [2]: 16 nM; inhibition in vivo at 0.1 mg/kg [1, 3]: 24%
11 | CCCCCCC(CNC(=O)Nc1c(C(C)C)cccc1C(C)C)c1ccc(OC)c(OC)c1 (stereo not drawn) [Example 36] | 26% | –
12 | CCCCC(CNC(=O)Nc1c(C(C)C)cccc1C(C)C)c1cccc(Cl)c1 (stereo not drawn) [Example 40] | 38% | IC50 [2]: 31 nM
13 | CCCCC(CNC(=O)Nc1c(C(C)C)cccc1C(C)C)Cc1ccc(Cl)cc1 (stereo not drawn) [Example 49] | – | inhibition in vivo at 10 mg/kg ([1]; Mesocricetus auratus, po, 120 h, 10 mg/kg (footnote 2), read-out: Percent inhibition of cholesterol in serum): 33%
14 | CC(C)c1cccc(C(C)C)c1NC(=O)NCC(c1ccccc1)C(C)(C)C (stereo not drawn) [compound 1, 1-(3,3-dimethyl-2-phenylbutyl)-3-(2,6-diisopropyl-phenyl)urea, reference compound] | – | inhibition in vivo at 5 mg/kg ([1]; Mesocricetus auratus, po, 120 h, 5 mg/kg, read-out: Percent inhibition of cholesterol in serum): 5%
